# According to patent publication US11980688B2, “Nanoliposome-microbubble conjugate including drug for hair loss treatment encapsulated in nanoliposome and composition for alleviating or treating hair loss containing same” (priority 2018, dated 2024):
# Assays:
# C57BL/6J mice = test: Testosterone-induced hair loss mouse model, hair growth; assay type: in vivo; details: FIG. 5
# Experimental: The hair on the back of each of 6-week-old mice (C57BL/6J) was epilated using an animal epilator (Philips) and hair removal cream (Veet), after which testosterone was dissolved in a mixed solution of propylene glycol and ethanol (3:7 (v:v)) and applied every day at a concentration of 30 μg/ml, and thus an environment similar to that of human hair loss was made.
# In the present experiment, the individual test groups were as follows (testosterone was applied to the skin in all cases). • (1) A control group (non-treated group); • (2) A group treated with testosterone; • (3) A group treated with testosterone and then subjected to skin application with the nanoliposome-microbubble conjugate of Example 1; • (4) A group treated with testosterone and then subjected to oral administration with a commercially available finasteride solution; • (5) A group treated with testosterone and then subjected to skin application with a commercially available finasteride solution; • (6) A group treated with testosterone and then subjected to skin application with the nanoliposome of Comparative Example 1; and • (7) A group subjected to skin application with the nanoliposome-microbubble conjugate of Example 1.
# A nanoliposome-microbubble conjugate (HTP) configured such that the nanoliposome and the microbubble were conjugated and dispersed at a ratio of 2:1 was used. 200 μl thereof, having a total finasteride content of 1 μg, was applied on the entire epilated back of the mice using a plastic spatula, and after 3 min, was exposed to ultrasound using a medical sonicator. Here, the nanoliposome-microbubble conjugate was applied five times at an interval of one day. Under the same conditions, the total finasteride content was matched in the group treated with the commercially available finasteride solution in lieu of the solution of Example 1 or Comparative Example 1. […]
# DPCs = test: Cell viability, WST-1 assay, testosterone-induced apoptosis; assay type: cell-based; details: 200 μM testosterone, every 24 hr for 4 days, DPCs compared to 3T3 fibroblasts, FIG. 4 left
# Experimental: Cell viability was evaluated through WST-1 assay (EZ-cytox Cell Viability Assay Kit). DPCs and 3T3 fibroblasts were cultured at a density of 1×10^4/well in a 96-well plate for 24 hr. Here, the culture medium was replaced with a new medium containing 200 μM testosterone, and after 24 hr, a WST-1 reagent was added thereto. The WST-1 reagent was added in an amount of 10% of the culture broth, and after 1 hr, absorbance was measured at 460 nm and thus cell survival and proliferation were compared with a control group (non-treated group). Cell survival was measured at an interval of 24 hr for 4 days after testosterone treatment.
# After treatment with the nanoliposome-microbubble conjugate (HTP) of the present invention before treatment with testosterone in the same manner, the culture medium was replaced with a new medium containing 200 μM testosterone, the subsequent procedures were conducted as above, and the state of cells was observed. A comparative group was treated with the nanoliposome-microbubble conjugate (HTP) alone.
structure (smiles),measurement,setting,value
"CC(C)(C)NC(=O)[C@H]1CC[C@H]2[C@@H]3CC[C@H]4NC(=O)C=C[C@]4(C)[C@H]3CC[C@]12C [commercially available finasteride drug, finasteride]","hair growth after testosterone, skin application","C57BL/6J mice; testosterone 30 μg/ml daily, total finasteride 1 μg, applied five times at one-day interval",hair started growing on the seventh week
same,"hair growth after testosterone, oral administration","C57BL/6J mice; testosterone daily, oral dose 10 times the application dose, five times",hair started growing on the seventh week
C[C@]12CC[C@H]3[C@@H](CCC4=CC(=O)CC[C@@]43C)[C@@H]1CC[C@@H]2O [testosterone],"hair growth, testosterone alone",C57BL/6J mice; testosterone 30 μg/ml applied every day to epilated back,grew hardly any hair
same,extent of apoptosis over time,DPCs,greatly increased in DPCs compared to 3T3 cells
